Legend:
Test in all cases: KINOMEscan competition binding
Details in all cases: compound 10.0 µM
[1] = tested on: ABL1 (human), P00519 [F317I]
[2] = tested on: ABL1 (human), P00519 [M351T]
[3] = tested on: ABL1 (human), P00519 [Q252H]
BMPR2 (human) = BMPR2 (human) (UniProt Q13873)
CAMK2B (human) = CAMK2B (human) (UniProt Q13554)
CAMK4 (human) = CAMK4 (human) (UniProt Q16566)
CDC42BPA (human) = CDC42BPA (human) (UniProt Q5VT25)
CDK3 (human) = CDK3 (human) (UniProt Q00526)
CDK8 (human) = CDK8 (human) (UniProt P49336)
CHUK (human) = CHUK (human) (UniProt O15111)
CLK1 (human) = CLK1 (human) (UniProt P49759)
CSNK1G2 (human) = CSNK1G2 (human) (UniProt P78368)
DCLK2 (human) = DCLK2 (human) (UniProt Q8N568)
EPHA3 (human) = EPHA3 (human) (UniProt P29320)
EPHA7 (human) = EPHA7 (human) (UniProt Q15375)
EPHB4 (human) = EPHB4 (human) (UniProt P54760)
Sequence of EPHB4 (human) (P54760 whole entry, looked up): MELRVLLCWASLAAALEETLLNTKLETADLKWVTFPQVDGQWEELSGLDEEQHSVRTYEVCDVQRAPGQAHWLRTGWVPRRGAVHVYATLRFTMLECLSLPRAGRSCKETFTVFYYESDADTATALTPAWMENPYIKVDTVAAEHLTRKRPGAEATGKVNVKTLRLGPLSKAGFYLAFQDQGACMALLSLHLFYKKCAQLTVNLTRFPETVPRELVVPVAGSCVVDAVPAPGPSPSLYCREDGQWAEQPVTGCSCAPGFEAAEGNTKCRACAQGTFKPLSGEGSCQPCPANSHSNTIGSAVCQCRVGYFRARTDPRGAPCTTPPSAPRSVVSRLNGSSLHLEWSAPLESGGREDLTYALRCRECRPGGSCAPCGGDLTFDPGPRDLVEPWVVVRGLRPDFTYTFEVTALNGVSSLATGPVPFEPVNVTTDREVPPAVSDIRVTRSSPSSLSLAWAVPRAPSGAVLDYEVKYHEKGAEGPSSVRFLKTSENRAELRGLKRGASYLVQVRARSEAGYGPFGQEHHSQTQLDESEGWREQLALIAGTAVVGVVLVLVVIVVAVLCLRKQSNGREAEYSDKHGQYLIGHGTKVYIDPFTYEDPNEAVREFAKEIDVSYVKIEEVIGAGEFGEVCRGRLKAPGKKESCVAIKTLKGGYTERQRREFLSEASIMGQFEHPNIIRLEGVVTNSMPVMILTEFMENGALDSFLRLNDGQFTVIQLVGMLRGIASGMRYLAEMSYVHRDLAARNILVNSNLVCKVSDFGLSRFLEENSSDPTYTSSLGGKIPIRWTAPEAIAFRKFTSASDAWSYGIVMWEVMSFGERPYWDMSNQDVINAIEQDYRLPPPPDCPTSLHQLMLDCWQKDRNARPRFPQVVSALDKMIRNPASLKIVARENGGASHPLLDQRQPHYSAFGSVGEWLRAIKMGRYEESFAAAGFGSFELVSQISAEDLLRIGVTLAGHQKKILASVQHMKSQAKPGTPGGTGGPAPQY

FES (human) = FES (human) (UniProt P07332)
FGFR3 (human) = FGFR3 (human) (UniProt P22607)
[4] = tested on: FLT3 (human), P36888 [K663Q]
HIPK1 (human) = HIPK1 (human) (UniProt Q86Z02)
Sequence of HIPK1 (human) (Q86Z02 whole entry, looked up): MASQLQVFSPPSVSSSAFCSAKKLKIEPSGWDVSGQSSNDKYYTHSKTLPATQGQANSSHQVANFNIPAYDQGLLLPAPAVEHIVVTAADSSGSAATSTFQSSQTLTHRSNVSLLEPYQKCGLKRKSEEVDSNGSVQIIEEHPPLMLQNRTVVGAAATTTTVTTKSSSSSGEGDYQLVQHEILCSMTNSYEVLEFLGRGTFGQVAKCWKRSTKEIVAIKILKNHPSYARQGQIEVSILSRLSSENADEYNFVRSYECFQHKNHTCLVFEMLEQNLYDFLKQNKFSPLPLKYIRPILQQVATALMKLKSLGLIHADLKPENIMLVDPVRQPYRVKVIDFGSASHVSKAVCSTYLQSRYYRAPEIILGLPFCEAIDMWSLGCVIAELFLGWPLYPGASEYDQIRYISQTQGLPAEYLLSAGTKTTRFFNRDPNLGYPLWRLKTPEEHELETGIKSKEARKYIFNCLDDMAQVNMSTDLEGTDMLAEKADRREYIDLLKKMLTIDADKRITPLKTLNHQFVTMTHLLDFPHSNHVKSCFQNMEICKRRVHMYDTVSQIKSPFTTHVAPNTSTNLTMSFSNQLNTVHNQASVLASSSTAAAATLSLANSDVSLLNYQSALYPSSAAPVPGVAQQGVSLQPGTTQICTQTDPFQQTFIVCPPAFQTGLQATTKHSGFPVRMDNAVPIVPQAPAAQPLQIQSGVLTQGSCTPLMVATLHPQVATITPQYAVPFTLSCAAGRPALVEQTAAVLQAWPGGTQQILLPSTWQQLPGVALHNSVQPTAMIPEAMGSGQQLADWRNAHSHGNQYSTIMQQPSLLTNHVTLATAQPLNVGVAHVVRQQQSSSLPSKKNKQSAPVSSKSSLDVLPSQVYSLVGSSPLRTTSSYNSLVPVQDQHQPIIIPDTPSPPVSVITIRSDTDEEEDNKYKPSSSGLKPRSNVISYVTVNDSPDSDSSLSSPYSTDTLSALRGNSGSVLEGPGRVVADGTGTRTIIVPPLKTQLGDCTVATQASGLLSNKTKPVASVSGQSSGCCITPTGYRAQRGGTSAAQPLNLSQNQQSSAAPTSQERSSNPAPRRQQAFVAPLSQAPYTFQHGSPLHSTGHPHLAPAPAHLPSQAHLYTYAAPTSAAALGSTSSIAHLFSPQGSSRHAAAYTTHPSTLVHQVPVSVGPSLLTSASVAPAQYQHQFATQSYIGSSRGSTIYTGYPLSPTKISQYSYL

HIPK4 (human) = HIPK4 (human) (UniProt Q8NE63)
KDR (human) = KDR (human) (UniProt P35968)
MAPK9 (human) = MAPK9 (human) (UniProt P45984)
MARK1 (human) = MARK1 (human) (UniProt Q9P0L2)
MARK2 (human) = MARK2 (human) (UniProt Q7KZI7)
MST1R (human) = MST1R (human) (UniProt Q04912)
MUSK (human) = MUSK (human) (UniProt O15146)
NUAK1 (human) = NUAK1 (human) (UniProt O60285)
PKMYT1 (human) = PKMYT1 (human) (UniProt Q99640)
PKN1 (human) = PKN1 (human) (UniProt Q16512)
Sequence of PKN1 (human) (Q16512 whole entry, looked up): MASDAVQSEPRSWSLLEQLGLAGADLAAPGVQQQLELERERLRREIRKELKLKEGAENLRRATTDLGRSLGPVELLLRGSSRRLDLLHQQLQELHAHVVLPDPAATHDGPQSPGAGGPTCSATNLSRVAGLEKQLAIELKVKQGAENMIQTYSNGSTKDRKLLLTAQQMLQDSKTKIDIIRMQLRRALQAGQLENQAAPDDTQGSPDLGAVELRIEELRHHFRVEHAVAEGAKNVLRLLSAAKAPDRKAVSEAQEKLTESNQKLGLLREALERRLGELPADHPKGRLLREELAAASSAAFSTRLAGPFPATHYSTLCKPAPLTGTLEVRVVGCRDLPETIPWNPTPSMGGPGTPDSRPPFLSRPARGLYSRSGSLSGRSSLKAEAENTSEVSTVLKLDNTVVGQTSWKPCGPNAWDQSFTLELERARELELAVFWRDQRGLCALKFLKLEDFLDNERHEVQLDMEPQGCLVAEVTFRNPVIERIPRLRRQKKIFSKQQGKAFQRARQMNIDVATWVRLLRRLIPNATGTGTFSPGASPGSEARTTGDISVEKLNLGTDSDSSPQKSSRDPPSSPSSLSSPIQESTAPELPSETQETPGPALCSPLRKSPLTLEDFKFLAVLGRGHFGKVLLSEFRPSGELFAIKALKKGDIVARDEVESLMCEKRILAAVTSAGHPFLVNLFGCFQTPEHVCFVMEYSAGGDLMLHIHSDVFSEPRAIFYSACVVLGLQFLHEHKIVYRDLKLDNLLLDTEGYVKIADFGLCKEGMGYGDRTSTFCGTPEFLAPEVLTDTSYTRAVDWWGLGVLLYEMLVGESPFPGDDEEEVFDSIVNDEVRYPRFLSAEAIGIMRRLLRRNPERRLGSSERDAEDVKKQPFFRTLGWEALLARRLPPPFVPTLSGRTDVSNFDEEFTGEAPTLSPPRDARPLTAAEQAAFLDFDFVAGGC

PRKACB (human) = PRKACB (human) (UniProt P22694)
PRKCH (human) = PRKCH (human) (UniProt P24723)
PRKCQ (human) = PRKCQ (human) (UniProt Q04759)
RAF1 (human) = RAF1 (human) (UniProt P04049)
Sequence of RAF1 (human) (P04049 whole entry, looked up): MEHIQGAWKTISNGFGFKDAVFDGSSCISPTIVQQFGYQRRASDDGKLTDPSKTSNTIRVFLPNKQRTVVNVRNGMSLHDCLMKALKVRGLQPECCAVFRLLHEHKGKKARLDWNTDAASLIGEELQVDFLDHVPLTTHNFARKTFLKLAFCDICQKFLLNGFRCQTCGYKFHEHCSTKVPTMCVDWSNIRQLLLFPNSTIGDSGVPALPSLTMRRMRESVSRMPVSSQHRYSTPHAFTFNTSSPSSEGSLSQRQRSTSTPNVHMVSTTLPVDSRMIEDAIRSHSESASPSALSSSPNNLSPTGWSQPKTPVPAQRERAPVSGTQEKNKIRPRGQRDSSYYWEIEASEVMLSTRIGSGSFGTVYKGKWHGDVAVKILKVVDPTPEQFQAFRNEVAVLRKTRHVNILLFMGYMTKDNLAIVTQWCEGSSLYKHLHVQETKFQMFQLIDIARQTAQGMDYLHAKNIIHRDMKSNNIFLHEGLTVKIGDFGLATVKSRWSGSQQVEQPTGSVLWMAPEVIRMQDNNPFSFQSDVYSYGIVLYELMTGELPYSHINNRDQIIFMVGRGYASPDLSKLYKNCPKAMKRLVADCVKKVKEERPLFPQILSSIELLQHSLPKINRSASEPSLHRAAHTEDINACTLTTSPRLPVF

[5] = tested on: RET (human), P07949 [M918T]
RPS6KA4 KD1 (human) = RPS6KA4 KD1 (human) (UniProt O75676)
STK24 (human) = STK24 (human) (UniProt Q9Y6E0)
STK25 (human) = STK25 (human) (UniProt O00506)
Sequence of STK25 (human) (O00506 whole entry, looked up): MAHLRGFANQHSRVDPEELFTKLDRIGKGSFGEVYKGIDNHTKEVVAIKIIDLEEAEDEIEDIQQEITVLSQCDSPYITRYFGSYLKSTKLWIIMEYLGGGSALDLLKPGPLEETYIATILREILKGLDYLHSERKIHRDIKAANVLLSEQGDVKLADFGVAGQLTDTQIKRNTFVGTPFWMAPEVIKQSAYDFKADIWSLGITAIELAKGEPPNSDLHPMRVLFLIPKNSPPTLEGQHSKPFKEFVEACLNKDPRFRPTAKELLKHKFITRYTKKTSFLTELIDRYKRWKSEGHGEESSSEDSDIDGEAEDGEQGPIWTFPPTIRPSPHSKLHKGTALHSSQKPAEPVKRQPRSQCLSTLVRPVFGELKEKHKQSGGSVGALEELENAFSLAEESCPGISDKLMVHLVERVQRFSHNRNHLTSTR

STK33 (human) = STK33 (human) (UniProt Q9BYT3)
STK39 (human) = STK39 (human) (UniProt Q9UEW8)
TTK (human) = TTK (human) (UniProt P33981)
ULK2 (human) = ULK2 (human) (UniProt Q8IYT8)

Sequence of CAMK2B (human) (Q13554 whole entry, looked up): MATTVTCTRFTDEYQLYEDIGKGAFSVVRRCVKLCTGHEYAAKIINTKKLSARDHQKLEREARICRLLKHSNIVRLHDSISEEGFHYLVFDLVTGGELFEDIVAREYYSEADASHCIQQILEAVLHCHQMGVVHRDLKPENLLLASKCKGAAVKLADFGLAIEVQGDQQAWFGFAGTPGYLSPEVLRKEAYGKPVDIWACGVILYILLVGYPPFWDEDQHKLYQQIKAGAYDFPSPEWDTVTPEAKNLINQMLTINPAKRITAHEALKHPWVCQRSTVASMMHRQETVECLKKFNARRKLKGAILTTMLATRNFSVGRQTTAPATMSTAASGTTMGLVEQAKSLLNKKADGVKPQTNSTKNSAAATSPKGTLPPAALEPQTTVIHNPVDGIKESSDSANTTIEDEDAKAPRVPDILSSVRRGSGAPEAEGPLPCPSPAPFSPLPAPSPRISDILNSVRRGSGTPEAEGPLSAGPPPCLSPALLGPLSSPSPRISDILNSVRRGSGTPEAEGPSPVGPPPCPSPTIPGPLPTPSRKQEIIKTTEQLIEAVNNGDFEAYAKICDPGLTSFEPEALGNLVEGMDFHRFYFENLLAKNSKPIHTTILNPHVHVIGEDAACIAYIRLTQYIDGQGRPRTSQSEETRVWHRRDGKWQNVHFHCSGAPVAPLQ

kinase still bound, per cent of control [1]: 100%
kinase still bound, per cent of control [2]: 82%
kinase still bound, per cent of control [3]: 100%
kinase still bound, per cent of control (BMPR2 (human)): 100%
kinase still bound, per cent of control (CAMK2B (human)): 55%
kinase still bound, per cent of control (CAMK4 (human)): 98%
kinase still bound, per cent of control (CDC42BPA (human)): 100%
kinase still bound, per cent of control (CDK3 (human)): 14%
kinase still bound, per cent of control (CDK8 (human)): 100%
kinase still bound, per cent of control (CHUK (human)): 84%
kinase still bound, per cent of control (CLK1 (human)): 1.6%
kinase still bound, per cent of control (CSNK1G2 (human)): 100%
kinase still bound, per cent of control (DCLK2 (human)): 100%
kinase still bound, per cent of control (EPHA3 (human)): 76%
kinase still bound, per cent of control (EPHA7 (human)): 95%
kinase still bound, per cent of control (EPHB4 (human)): 100%
kinase still bound, per cent of control (FES (human)): 100%
kinase still bound, per cent of control (FGFR3 (human)): 97%
kinase still bound, per cent of control [4]: 62%
kinase still bound, per cent of control (HIPK1 (human)): 5%
kinase still bound, per cent of control (HIPK4 (human)): 14%
kinase still bound, per cent of control (KDR (human)): 100%
kinase still bound, per cent of control (MAPK9 (human)): 59%
kinase still bound, per cent of control (MARK1 (human)): 96%
kinase still bound, per cent of control (MARK2 (human)): 78%
kinase still bound, per cent of control (MST1R (human)): 100%
kinase still bound, per cent of control (MUSK (human)): 100%
kinase still bound, per cent of control (NUAK1 (human)): 90%
kinase still bound, per cent of control (PKMYT1 (human)): 100%
kinase still bound, per cent of control (PKN1 (human)): 73%
kinase still bound, per cent of control (PRKACB (human)): 100%
kinase still bound, per cent of control (PRKCH (human)): 79%
kinase still bound, per cent of control (PRKCQ (human)): 24%
kinase still bound, per cent of control (RAF1 (human)): 91%
kinase still bound, per cent of control [5]: 100%
kinase still bound, per cent of control (RPS6KA4 KD1 (human)): 100%
kinase still bound, per cent of control (STK24 (human)): 69%
kinase still bound, per cent of control (STK25 (human)): 76%
kinase still bound, per cent of control (STK33 (human)): 100%
kinase still bound, per cent of control (STK39 (human)): 100%
kinase still bound, per cent of control (TTK (human)): 83%
kinase still bound, per cent of control (ULK2 (human)): 96%
SMILES: Cn1cc(C2=C(c3ccc(Cl)cc3Cl)C(=O)NC2=O)c2ccccc21

From the kinase profiling compilation of Christmann-Franck et al. (2016)
